From patent publication US20150322082A1, “NOVEL COMPOUNDS AS DIACYLGLYCEROL ACYLTRANSFERASE INHIBITORS” (GLAXOSMITHKLINE LLC, priority 2012, published 2015)
Read-outs that look alike come from different tables or passages of the source.

What was measured:
Human DGAT1 = target: T1, Human DGAT1 (Homo sapiens, UniProt O75907); assay: Human DGAT1 lipid extraction (LE) assay, inhibition of triacylglycerol product formation; type: biochemical; details: human DGAT1 microsomes from Sf9 cells, read-out: hDGAT LE IC50
T1 construct: made in house; host or cells: Sf9 insect cells (baculovirus); microsomes
T1 sequence (O75907 1-488): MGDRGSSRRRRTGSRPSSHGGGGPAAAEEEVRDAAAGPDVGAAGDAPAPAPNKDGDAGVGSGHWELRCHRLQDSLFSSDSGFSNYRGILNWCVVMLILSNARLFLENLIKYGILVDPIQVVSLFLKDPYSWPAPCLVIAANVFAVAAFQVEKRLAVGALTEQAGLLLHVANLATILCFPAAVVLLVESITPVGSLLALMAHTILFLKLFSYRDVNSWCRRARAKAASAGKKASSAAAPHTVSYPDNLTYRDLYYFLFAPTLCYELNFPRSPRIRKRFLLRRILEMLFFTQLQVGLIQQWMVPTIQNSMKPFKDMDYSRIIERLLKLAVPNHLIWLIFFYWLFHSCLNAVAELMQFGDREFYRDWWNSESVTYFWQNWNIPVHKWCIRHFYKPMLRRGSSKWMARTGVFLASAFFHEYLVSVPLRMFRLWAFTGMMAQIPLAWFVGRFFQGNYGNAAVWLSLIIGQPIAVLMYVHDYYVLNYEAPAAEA
Description: Human DGAT1 was expressed in Sf9 insect cells using a baculovirus expression system. Microsomes were prepared and used as enzyme for in vitro inhibition testing in either of two formats measuring production of coenzyme A or tridecanoylglycerol product, respectively. All steps were performed at 21-23° C. All data for DGAT1 inhibition by test compounds were collected under conditions where product formation was linear with reaction time.
Some assays were performed with inclusion of didecanoylglycerol in the pre-reaction incubation of test compounds and enzyme. […] Extraction of tridecanoylglycerol product was accomplished via addition of 30 uL Microscint-E (Perkin Elmer) and 2 hours of incubation (sealed). Plates were read on a Microbeta Microplate reader. Inhibition was normalized to controls containing DMSO or 10 uM {4-[4-(4-amino-7,7-dimethyl-7H-pyrimido[4,5-b][1,4]oxazin-6-yl)phenyl]cyclohexyl}acetic acid. IC50s were fitted using GraphPad Prism to a sigmoidal dose response.

[1] = Pharmacokinetic assay in rats (Rat IV and PO PK); type: in vivo; details: male, Crl:CD (SD), plasma; for bioavailability: 2 mg/kg, absolute oral bioavailability from oral and intravenous AUC0-inf, normalized for dose, read-out: Rat % F
Description: Pharmacokinetic Assay in Rats (Rat IV and PO PK)
Male Crl:CD (SD) rats were housed individually in cages with clean bedding in a controlled environment (22 to 25° C. temperature, humidity of 30-70% RH, and a 12 hour light/12 hour dark cycle). Certified rodent diet was provided ad libitum to the rats. Rats were fasted overnight 14-16 hours prior to the dosing on each study day and fed approximately 4 hours post dose (following collection of the 4 hour blood sample). Water was available ad libitum. Normal healthy rats certified by the attending veterinarian were selected and acclimatized for a minimum of three days prior to initiation of the study. Rats were randomized according to the body weight and were identified with body markings.
Intravenous formulation of 1 mg/mL concentration was prepared in DMA (N,N-Dimethylacetamide):TEG (Tetraethylene glycol): Water for Injection (20:40:40) freshly on study day. Animals were dosed through tail vein to achieve a target dose of 1 mg/kg. Oral suspension at a target concentration of 2 mg/mL was prepared freshly in Tween 80 (2%) and 0.5% MC (Methylcellulose) (2:98) on the study day. Animals in the intravenous dosing group were dosed through tail vein to achieve a target dose of 1 mg/kg, and the animals in oral dosing group were dosed orally by an oral gavage needle to achieve a target dose of 2 mg/kg. The actual dose volume was based on the body weight obtained on the study day. On the study day, blood samples (approx. 300 μL/time point) were collected at 0.083, 0.25, 0.5, 1, 2, 4, 8 and 24 hours after intravenous bolus dose, and 0.25, 0.5, 1, 2, 4, 8 and 24 hours after dosing of oral gavage and transferred to a pre-labeled K2EDTA coated tubes. Blood volume was replaced with administration of equal volume of saline through the jugular vein. After collection of blood samples at each time point, the blood samples were stored immediately on ice, in chilled Cryoracks and centrifuged at 2320 g at 4° C. for 15 minutes. The plasma was separated and transferred to pre-labeled micro-centrifuge tubes and promptly frozen at −80+10° C. until bioanalysis.
The plasma concentrations were determined by using a fit for purpose analytical method based on protein precipitation, followed by LC-MS/MS analysis. Analyst Version 1.5.1 software was used to acquire and quantify data. Pharmacokinetic analysis of plasma concentration-time data was performed by a non-compartmental method using Pheonix WinNonLin™ (WLN) Version 6.3.
The area under the plasma concentration-time curve (AUC) from the time of dosing to the last quantifiable time point (AUC0-1) was determined by WLN using linear logarithmic trapezoidal rule. Terminal half life (T1/2) was determined by WLN using linear logarithmic trapezoidal rule for plasma concentrations following intravenous administration. The Absolute oral bioavailability (% F) was calculated by mathematical comparison of oral and intravenous AUC0-inf, normalized for dose.

[2] = intravenous (tail vein), target dose 1 mg/kg, read-out: Rat IV AUC
[3] = oral gavage, target dose 2 mg/kg, read-out: Rat PO AUC

## CC(C)(O)Cn1ccc2cc(N3CCOc4ncnc(N)c4C3=O)cc(C3CC3)c21 [Example 40, 4-amino-6-(7-cyclopropyl-1-(2-hydroxy-2-methylpropyl)-1H-indol-5-yl)-7,8-dihydropyrimido[5,4-f][1,4]oxazepin-5(6H)-one]
Human DGAT1
  IC50: 7.5 nM

## Nc1ncnc2c1C(=O)N(c1ccc3c(ccn3-c3ccc(C(F)(F)F)nc3)c1)CCO2 [WO12/162129, Ex 83, 4-amino-6-(1-(6-(trifluoromethyl)pyridin-3-yl)-1H-indol-5-yl)-7,8-dihydropyrimido[5,4-f][1,4]oxazepin-5(6H)-one]
[1]; [2]
  AUC: 3380 ng·h/mL
[1]; [3]
  AUC: 3860 ng·h/mL
[1]
  bioavailability: 30.4%

## Cc1ccc(-n2ccc3cc(N4CCOc5ncnc(N)c5C4=O)ccc32)cn1 [WO12/162129, Ex 102, 4-amino-6-(1-(6-methylpyridin-3-yl)-1H-indol-5-yl)-7,8-dihydropyrimido[5,4-f][1,4]oxazepin-5(6H)-one]
[1]; [2]
  AUC: 975 ng·h/mL
[1]; [3]
  AUC: 2490 ng·h/mL
[1]
  bioavailability: 65.6%

## CCOc1ncc(-n2ccc3cc(N4CCOc5ncnc(N)c5C4=O)ccc32)cn1 [Example 41]
Human DGAT1
  IC50: 23.8 nM

## CC(C)(O)c1ccc(-n2ccc3cc(N4CCOc5ncnc(N)c5C4=O)ccc32)cn1 [Example 38, 4-Amino-6-(1-(6-(2-hydroxypropan-2-yl)pyridin-3-yl)-1H-indol-5-yl)-7,8-dihydropyrimido[5,4-f][1,4]oxazepin-5(6H)-one]
[1]; [2]
  AUC: 2140 ng·h/mL
[1]; [3]
  AUC: 4020 ng·h/mL
[1]
  bioavailability: 89%
Human DGAT1
  IC50: 29 nM

## COC(C)(C)Cn1ccc2cc(N3CCOc4ncnc(N)c4C3=O)ccc21 [Example 39, 4-amino-6-(1-(2-methoxy-2-methylpropyl)-1H-indol-5-yl)-7,8-dihydropyrimido[5,4-f][1,4]oxazepin-5(6H)-one]
Human DGAT1
  IC50: 42.3 nM

## Cc1cnc(-n2ccc3cc(N4CCOc5ncnc(N)c5C4=O)cc(C4CC4)c32)nc1 [Example 37, 4-Amino-6-(7-cyclopropyl-1-(5-methylpyrimidin-2-yl)-1H-indol-5-yl)-7,8-dihydropyrimido[5,4-f][1,4]oxazepin-5(6H)-one]
[1]; [2]
  AUC: 11700 ng·h/mL
[1]; [3]
  AUC: 11600 ng·h/mL
[1]
  bioavailability: 54.6%
Human DGAT1
  IC50: 11.7 nM

## Nc1ncnc2c1C(=O)N(c1ccc3c(ccn3-c3ccc(C(F)(F)F)cn3)c1)CCO2 [WO12/162129, Ex 88, 4-amino-6-(1-(5-(trifluoromethyl)pyridin-2-yl)-1H-indol-5-yl)-7,8-dihydropyrimido[5,4-f][1,4]oxazepin-5(6H)-one]
[1]; [2]
  AUC: 3780 ng·h/mL
[1]; [3]
  AUC: 1780 ng·h/mL
[1]
  bioavailability: 12.5%
